# According to paper PMC4764943, “Inhibitory effect of traditional oriental medicine-derived monoamine oxidase B inhibitor on radioresistance of non-small cell lung cancer” (Scientific Reports, 2016):
# How the values were obtained:
# [1] = target: T1, MAOB (monoamine oxidase B) (Homo sapiens, UniProt P27338); assay: ITC ([…] stoichiometry); also MAOB activity inhibition in vitro, IC50 […]; type: binding
# T1 construct: recombinant human MAOB
# T1 sequence (P27338 2-520): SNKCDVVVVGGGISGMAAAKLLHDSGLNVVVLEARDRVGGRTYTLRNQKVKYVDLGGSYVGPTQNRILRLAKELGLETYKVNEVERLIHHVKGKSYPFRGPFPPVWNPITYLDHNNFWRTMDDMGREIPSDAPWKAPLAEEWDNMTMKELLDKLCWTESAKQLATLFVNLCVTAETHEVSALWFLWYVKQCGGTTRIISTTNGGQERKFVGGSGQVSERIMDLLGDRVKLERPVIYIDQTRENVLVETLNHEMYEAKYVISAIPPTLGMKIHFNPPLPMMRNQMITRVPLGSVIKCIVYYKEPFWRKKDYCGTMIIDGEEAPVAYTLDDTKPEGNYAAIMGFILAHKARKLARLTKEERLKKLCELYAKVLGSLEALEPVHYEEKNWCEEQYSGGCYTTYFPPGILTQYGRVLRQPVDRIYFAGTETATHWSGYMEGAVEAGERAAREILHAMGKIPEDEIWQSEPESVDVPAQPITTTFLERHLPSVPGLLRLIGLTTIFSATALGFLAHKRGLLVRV
# [2] = target: T1, MAOB (monoamine oxidase B); assay: ITC; type: binding
smiles,measurement,setting,value
"O=C(O)[C@H](O)Cc1ccc(O)c(O)c1 [danshensu, 3-(3,4-dihydroxyphenyl)-2-hydroxy-propanoic acid]",Kd,[1],16 ± 0.8 µM
CNCC(O)c1ccc(O)cc1 (stereo not drawn) [synephrine],Kd,[2]; read-out: Kd,183 ± 10.3 µM
COc1cc(C=O)ccc1O [vanillin],Kd,[2],165 ± 9.1 µM
